{
  "source": "paper PMC10140125",
  "about": "(Investigational New Drugs, 2023)",
  "origin": "cited, not measured here",
  "system": "recurrent malignant gliomas",
  "set-up": "method as in PMID 20458050, PMID 20200024",
  "details": "phase II studies, recurrent malignant gliomas ref 4, 22",
  "data": [
    {"smiles": "Cc1ccc(Nc2nccc(N(C)c3ccc4c(C)n(C)nc4c3)n2)cc1S(N)(=O)=O", "note": "[pazopanib]", "values": [
      {"measurement": "ORR", "value": 5.9, "unit": "%"}
    ]},
    {"smiles": "COc1cc2c(Oc3ccc4[nH]c(C)cc4c3F)ncnc2cc1OCCCN1CCCC1", "note": "[cediranib]", "values": [
      {"measurement": "ORR", "value": 56.7, "unit": "%"}
    ]}
  ]
}
